The term pIC50 denotes −log10 of the IC50, conventionally taken in molar units.

The subject of this assay is PMA-differentiated THP-1 cells. Briefly: IL-1β production in PMA-differentiated THP-1 cells stimulated with gramicidin (hTHP-1 assay containing 2% fetal bovine serum; Procedures 1 and 2). It counts as cell-based, human. In outline: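 Secreted IL-1β, read by HTRF, after gramicidin challenge (5 μM, 2 h) of THP-1 cells differentiated with PMA (20 ng/ml, 16-18 h) and plated at 50,000 cells/well in 2% FBS medium. Compounds, 0.0017-100 μM final with 0.37% DMSO, were added 1 h before stimulation.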

The mark [1] stands for this setting: Table B2, 2% fetal bovine serum, class symbols, read-out: hTHP-1 IC50.
Setting [2] is: Homo sapiens, THP-1, Table B3, hTHP-1 assay, 2% fetal bovine serum, class symbols, read-out: IC50.
The mark [3] stands for this setting: Homo sapiens, THP-1, Table B3, hTHP-1 assay, 2% fetal bovine serum, numeric values, read-out: IC50.
[4] abbreviates: Homo sapiens, THP-1, Table B1, 2% fetal bovine serum, class symbols, read-out: Average IC50 of compounds in hTHP-1 assay: hTHP-1 IC50.
Setting [5] is: Table B1, 2% fetal bovine serum, class symbols, read-out: Average IC50 of compounds in hTHP-1 assay: hTHP-1 IC50.

SMILES strings stand for the structures. pIC50: −log10 of the molar value. Where two headings read alike, the source gives them in different places.

Turning to `NS(=O)(=NC(=O)Nc1c2c(nc3c1CCC31CC1)CCC2)c1ccn(C(F)F)n1` (single isomer, unassigned) [Compound 180b, (S) or (R)-1-(difluoromethyl)-N′-((1′,5′,6′,7′-tetrahydro-2′H-spiro[cyclopropane-1,3′-dicyclopenta[b,e]pryidin]-8′-yl)carbamoyl)-1H-pyrazole-3-sulfonimidamide], the negative-log IC50 (pIC50) (Homo sapiens, THP-1, Table B1, 2% fetal bovine serum, numeric bounds, read-out: Average IC50 of compounds in hTHP-1 assay: hTHP-1 IC50) is less than 4.52. On to `Cc1nc2c(c(NC(=O)N=S(N)(=O)c3cc(C(C)(C)O)cs3)c1C1CC1)CCC2` (single isomer, unassigned) [Compound 623a, (R) or (S)-N′-((3-cyclopropyl-2-methyl-6,7-dihydro-5H-cyclopenta[b]pyridin-4-yl)carbamoyl)-4-(2-hydroxypropan-2-yl)thiophene-2-sulfonimidamide], for which the pIC50 under setting [1] was 6.70 to 7.40. For the molecule `Cc1c(C(F)(F)F)nc2c(c1NC(=O)N=S(N)(=O)c1cnc(C(C)(C)O)s1)CCC2C` (single isomer, unassigned) [Example 705, (S, R) or (S, S)-N′-((3,7-dimethyl-2-(trifluoromethyl)-6,7-dihydro-5H-cyclopenta[b]pyridin-4-yl)carbamoyl)-2-(2-hydroxypropan-2-yl)thiazole-5-sulfonimidamide], the pIC50 under setting [2] is 4.52 to 5.30. On to `CC(C)c1nc2c(cc1NC(=O)N=S(N)(=O)c1cnc(C(C)(C)O)s1)CCC2` (single isomer, unassigned) [Example 702, (S) or (R)-2-(2-Hydroxypropan-2-yl)-N′-((2-isopropyl-6,7-dihydro-5H-cyclopenta[b]pyridin-3-yl)carbamoyl)thiazole-5-sulfonimidamide], for which the negative-log IC50 (pIC50) under setting [3] was less than 4.52. `CC(C)(O)c1nc(CO)c(S(N)(=O)=NC(=O)Nc2c3c(nc4c2CCC4)CCC3)s1` (stereo not shown) [Compound 150, N′-((1,2,3,5,6,7-hexahydrodicyclopenta[b,e]pyridin-8-yl)carbamoyl)-4-(hydroxymethyl)-2-(2-hydroxypropan-2-yl)thiazole-3-sulfonimidamide]: the pIC50 under setting [4] was 5.30 to 6.00. As to `Cc1cc(S(N)(=O)=NC(=O)Nc2c3c(nc4c2CCC4)CCC3)sc1C(C)(C)O` (single isomer, unassigned) [Compound 692b, (R) or (S)-N′-((1,2,3,5,6,7-hexahydrodicyclopenta [b,e]pyridin-8-yl)carbamoyl)-5-(2-hydroxypropan-2-yl)-4-methylthiophene-2-sulfonimidamide], the pIC50 under setting [1] is 5.30 to 6.00. In the case of `CO[C@H]1COc2c(S(N)(=O)=NC(=O)Nc3c(C)c(C(F)(F)F)nc4c3CCC4)cnn2C1` (single isomer, unassigned) [Example 655, (S) or (R)-(6R)-6-methoxy-N′-((3-methyl-2-(trifluoromethyl)-6,7-dihydro-5H-cyclopenta[b]pyridin-4-yl)carbamoyl)-6,7-dihydro-5H-pyrazolo[5,1-b][1,3] oxazine-3-sulfonimidamide], under setting [3], the pIC50 is less than 4.52. Turning to `CCC1CCc2c1nc1c(c2NC(=O)N=S(N)(=O)c2sc(C(C)(C)O)cc2F)CCC1` (single isomer, unassigned) [Compound 671a, (S, S) or (S, R) or (R, S) or (R, R)-N′-((3-ethyl-1,2,3,5,6,7-hexahydrodicyclopenta [b,e]pyridin-8-yl)carbamoyl)-3-fluoro-5-(2-hydroxypropan-2-yl) thiophene-2-sulfonimidamide], for the setting “Homo sapiens, THP-1, Table B2, 2% fetal bovine serum, numeric bounds, read-out: hTHP-1 IC50”, the negative logarithm of the IC50 (pIC50) is less than 4.52. With `CCc1c(C)nc2c(c1NC(=O)N=S(N)(=O)c1cnc(C(C)(C)O)s1)CCC2` (stereo not shown) [Compound 117, N′-((3-ethyl-2-methyl-6,7-dihydro-5H-cyclopenta[b]pyridin-4-yl)carbamoyl)-2-(2-hydroxypropan-2-yl)thiazole-5-sulfonimidamide], the negative-log IC50 (pIC50) under setting [4] was 4.52 to 5.30. Regarding `CC1CCc2c1nc1c(c2NC(=O)N=S(N)(=O)c2ncc(C(C)(C)O)s2)CCC1` (single isomer, unassigned) [Compound 140b, (S,R/S) or (R,R/S)-5-(2-hydroxypropan-2-yl)-N′-((3-methyl-1,2,3,5,6,7-hexa-hydrodicyclo-penta[b,e]pyridin-8-yl)carbamoyl)thiazole-2-sulfonimidamide], the pIC50 under setting [5] was 4.52 to 5.30.

As for `CC1CCc2c1nc1c(c2NC(=O)N=S(N)(=O)c2cnn(C(C)C)c2)CCC1` (stereo not shown) [Compound 171, 1-isopropyl-N′-((3-methyl-1,2,3,5,6,7-hexahydrodicyclopenta[b,e]pyridin-8-yl)carbamoyl)-1H-pyrazole-4-sulfonimidamide], the pIC50 under setting [4] was 5.30 to 6.00. Turning to `CCn1cc(F)c(S(N)(=O)=NC(=O)Nc2c(C)c(C(F)(F)F)nc3c2CC(C)C3)n1` (single isomer, unassigned) [Compound 1101a], under “Homo sapiens, THP-1, read-out: hTHP-1 IC50 in 2% FBS, hTHP-1 assay containing 2% fetal bovine serum, Table B5”, the pIC50 was 6.70 to 7.40.

`Cc1c(C2CC2)nc2c(c1NC(=O)N=S(N)(=O)c1cc(C(C)(C)O)n(-c3ccccc3)n1)CCC2` (single isomer, unassigned) [Compound 651a, (S) or (R)-N′-((2-cyclopropyl-3-methyl-6,7-dihydro-5H-cyclopenta[b]pyridin-4-yl)carbamoyl)-5-(2-hydroxypropan-2-yl)-1-phenyl-1H-pyrazole-3-sulfonimidamide]: the pIC50 under setting [1] is 4.52 to 5.30.

Turning to `CC(C)(O)c1ncc(S(N)(=O)=NC(=O)Nc2c3c(nc4c2CCC4)CCC3)s1` (single isomer, unassigned) [Compound 128a, (R) or (S)-N′-((1,2,3,5,6,7-hexahydrodicyclo-penta[b,e]pyridin-8-yl)carbamoyl)-2-(2-hydroxypropan-2-yl)thiazole-5-sulfonimidamide], the negative-log IC50 (pIC50) under setting [5] was 6.00 to 6.70. As to `CC1(C)CCc2c1nc1c(c2NC(=O)N=S(N)(=O)c2cnn3c2OC[C@H](O)C3)CCC1` (stereo partly drawn) [Example 603, (6R)-N′-((3,3-dimethyl-1,2,3,5,6,7-hexahydrodicyclopenta[b,e]pyridin-8-yl)carbamoyl)-6-hydroxy-6,7-dihydro-5H-pyrazolo[5,1-b][1,3]oxazine-3-sulfonimidamide], under setting [2], the pIC50 is 5.30 to 6.00. With `CC1CCc2c1nc1c(c2NC(=O)N=S(N)(=O)c2cc(C(C)(C)O)cs2)CCC1C` [Compound 131a, (R,S,S) and (R,R,R)-N′-((3,5-dimethyl-1,2,3,5,6,7-hexa-hydrodicyclo-penta[b,e]pyridin-8-yl)carbamoyl)-4-(2-hy-droxypropan-2-yl)thiophene-2-sulfonimidamide], the pIC50 under setting [5] is 6.00 to 6.70. Turning to `Cc1c(C(F)(F)F)nc2c(c1NC(=O)N=S(N)(=O)c1cc(C(C)(C)O)cs1)CCC2` (single isomer, unassigned) [Compound 624a, (S) or (R)-4-(2-Hydroxypropan-2-yl)-N′-((3-methyl-2-(trifluoromethyl)-6,7-dihydro-5H-cyclopenta[b]pyridin-4-yl)carbamoyl) thiophene-2-sulfonimidamide], the negative logarithm of the IC50 (pIC50) under setting [1] was 5.30 to 6.00.

`CC(C)(O)c1cc(F)c(S(N)(=O)=NC(=O)Nc2cc(CC(F)(F)F)nc3c2CCC3)s1` (single isomer, unassigned) [Example 690, (S) or (R)-3-Fluoro-5-(2-hydroxypropan-2-yl)-N′-((2-(2,2,2-trifluoroethyl)-6,7-dihydro-5H-cyclopenta[b]pyridin-4-yl)carbamoyl)thiophene-2-sulfonimidamide]: under setting [3], the negative-log IC50 (pIC50) was less than 4.52.

`CCn1cc(F)c(S(N)(=O)=NC(=O)Nc2c3c(nc(C(F)(F)F)c2C2CC2)CCC3)n1` (stereo not shown) [Compound 983]: the negative logarithm of the IC50 (pIC50) under setting [2] is 6.70 to 7.40.

These data come from patent publication US20230031406A1, “COMPOUNDS AND COMPOSITIONS FOR TREATING CONDITIONS ASSOCIATED WITH NLRP ACTIVITY” (Novartis AG, priority 2018, published 2023).
